The values below come from patent US20130158112A1, “COMPOSITIONS AND METHODS FOR INHIBITING BETA AMYLOID SECRETION” (priority 2011, published 2013).

The subject of one data set is Aβ secretion. Description: Secreted total Aβ ELISA in conditioned media of H4βAPP695 wt cells. Format: cell-based, human. An outline of the steps:
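H4 […] cells stably expressing wild-type βAPP695 (CMV promoter), serum-starved 24 h, then exposed to drug in DMSO or vehicle for 24 h before Aβ in conditioned media was measured. Primary cortical neurons came from E18 APPswe/PSEN1dE9 mice on C57BL/6 background.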
(ELISA stands for enzyme-linked immunosorbent assay.)

A further data set deals with H4βAPP695 wt cells. Particulars: human, 24 h.

`O=C(NCCSCc1cccc(Cl)c1)c1c([N+](=O)[O-])cccc1[N+](=O)[O-]` [Compound 56, N-[2-(3-Chloro-benzylsulfanyl)-ethyl]-2,6-dinitro-benzamide] came in with a melting point of 139 to 140 °C. Also, the inhibition at 10 µM in the data set with Aβ secretion (Homo sapiens, 24 h, 10 μM, H4βAPP695 wt cells, 24 h, read-out: Total Aβ (% decrease) 10 μM Mean) turned out to be 28.8%. The inhibition at 30 µM in the data set with Aβ secretion (Homo sapiens, 24 h, 30 μM, H4βAPP695 wt cells, 24 h, read-out: Total Aβ (% decrease) 30 μM Mean) was found to be 52.9%. Moreover, the “Aβ secretion inhibiting activity (structure activity summary)” value with Aβ secretion (in words) is “not well tolerated”. In addition, in the data set on H4βAPP695 wt cells (10 μM), the “Cell protein (% decrease) 10 μM Mean” value came out at 0.1%. The “Cell protein (% decrease) 30 μM Mean” value in the data set on H4βAPP695 wt cells (30 μM) is listed as 17.8%.

By melting point is commonly meant the temperature of the solid-liquid transition.
